Measurements published in patent US20240166641A1, “HETEROCYCLES AND USES THEREOF” (Kumquat Biosciences Inc., priority 2021, published 2024).

Key:
[1] = biological target: T1, PTPN2 (Homo sapiens, UniProt P17706); experiment: Phosphatase activity assay (Bio-Biochem-DiFMUP), PTPN2; format: biochemical; conditions: DiFMUP substrate, room temperature
T1 sequence (P17706 1-415): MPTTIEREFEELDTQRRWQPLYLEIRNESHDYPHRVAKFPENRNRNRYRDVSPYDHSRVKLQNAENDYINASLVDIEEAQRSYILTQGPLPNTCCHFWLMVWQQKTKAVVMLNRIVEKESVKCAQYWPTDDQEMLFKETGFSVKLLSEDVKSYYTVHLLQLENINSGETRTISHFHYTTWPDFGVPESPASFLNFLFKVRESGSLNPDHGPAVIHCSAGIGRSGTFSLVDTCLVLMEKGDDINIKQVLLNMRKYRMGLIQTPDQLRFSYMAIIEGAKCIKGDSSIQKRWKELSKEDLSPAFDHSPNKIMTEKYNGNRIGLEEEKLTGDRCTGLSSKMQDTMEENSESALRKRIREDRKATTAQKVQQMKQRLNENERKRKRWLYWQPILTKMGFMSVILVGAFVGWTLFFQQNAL
Summary of the method: (§1)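 Buffer was 50 mM Bis-Tris pH 6.3, 2 mM EDTA, 5 mM DMH, with 10 μM FDP or DiFMUP substrate, enzyme added last, at room temperature. Fluorescent product was read continuously for 15–30 min (DiFMU ex 360/em 450 nm; FMP ex 440/em 530 nm). Initial rates against 10-point inhibitor series were fitted with a 4-parameter equation to give IC50.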

[2] = biological target: T2, PTP1B (Homo sapiens, UniProt P18031); experiment: Phosphatase activity assay (Bio-Biochem-DiFMUP), PTP1B; format: biochemical; conditions: DiFMUP substrate, room temperature
T2 sequence (P18031 1-435): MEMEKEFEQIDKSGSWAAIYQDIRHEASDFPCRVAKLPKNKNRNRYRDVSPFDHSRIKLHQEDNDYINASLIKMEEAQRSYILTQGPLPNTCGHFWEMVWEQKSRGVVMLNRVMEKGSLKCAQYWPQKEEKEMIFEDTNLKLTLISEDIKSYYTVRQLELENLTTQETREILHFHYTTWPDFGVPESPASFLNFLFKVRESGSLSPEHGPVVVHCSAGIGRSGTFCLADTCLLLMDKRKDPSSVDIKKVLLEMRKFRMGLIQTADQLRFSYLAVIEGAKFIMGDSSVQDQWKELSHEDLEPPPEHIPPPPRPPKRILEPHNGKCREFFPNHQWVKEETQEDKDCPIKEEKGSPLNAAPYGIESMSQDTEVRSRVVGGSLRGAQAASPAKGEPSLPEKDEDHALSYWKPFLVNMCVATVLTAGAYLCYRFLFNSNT
Summary of the method: as §1

[3] = test system: mouse C57BL/6 T cells; experiment: pSTAT1 signaling in IFNα-stimulated T cells, flow cytometry; format: cell-based; conditions: T-cell, 10 uM compound, T cells stimulated for 5 hours by IFNα, read-out: % pSTAT1 in cells treated with subject compounds relative to negative control (DMSO)
Method: IFNα signaling in mouse C57BL/6 T cells promotes activation of multiple signaling pathways associated with antitumor responses. A key target of this signaling is phosphorylation of the transcription factor STAT1. […] T cells are stimulated for 5 hours by IFNα in the presence or absence of exemplified compounds disclosed herein (e.g., PTPN2 inhibitors) and stained intracellularly with antibodies for phosphorylated STAT1 and then analyzed by flow cytometry. Enhancement of phosphorylation of STAT1 is read out as a percentage over the DMSO control.

[4] = test system: C57B3L/6 mouse primary T cells; experiment: T-cell activation: CD25 expression on primary T cells stimulated with anti-CD3/CD28; format: cell-based; conditions: 10 uM compound, primary T cells stimulated with antibodies to CD3 and CD28
Method: The increase of T cell activation and most importantly T cell function is a strategy for novel immune oncology approaches to promote tumor immunity. In vitro assays using wildtype C57B3L/6 mouse primary T cells are commonly used to assess the impact of compound on T cell activation and function. To assess the ability of compounds disclosed here (e.g., PTPN2 inhibitors) to stimulate T cell activation, primary T cells stimulated with antibodies to CD3 and CD28 are treated with or without exemplary compounds (at 10 uM) disclosed herein are stained with antibodies directed to T-cell activation markers, such as CD25. Additional markers including without limitation CD69, SLAMF6, TIM3, and PD1 can also be employed as a proxy for T cell activation.

## COc1ccc2cc(O)c(N3CC(=O)NS3(=O)=O)c(F)c2n1 [Compound 154]
[1]
  IC50: ≤ 1000 nM
[2]
  IC50: ≤ 1000 nM
[3]
  activity at 10 µM: 303%

## CC(C)CCNc1ccc2cc(O)c(N3CC(=O)NS3(=O)=O)c(F)c2n1 [Compound 117]
[1]
  IC50: ≤ 1000 nM
[2]
  IC50: ≤ 1000 nM
[4]
  % CD25 expression in cells treated with subject compounds relative to negative control (DMSO): 363%
[3]
  activity at 10 µM: 210%

## CN1CCCC(COc2ccc3cc(O)c(N4CC(=O)NS4(=O)=O)c(F)c3n2)C1 (stereo not shown) [Compound 176]
[1]
  IC50: ≤ 1000 nM
[2]
  IC50: ≤ 1000 nM
[4]
  % CD25 expression in cells treated with subject compounds relative to negative control (DMSO): 206%
[3]
  activity at 10 µM: 229%

## CN(C)CCOc1ccc2cc(O)c(N3CC(=O)NS3(=O)=O)c(F)c2n1 [Compound 178]
[1]
  IC50: ≤ 1000 nM
[2]
  IC50: ≤ 1000 nM
[3]
  activity at 10 µM: 172%

## CC(C)CCOc1ccc2cc(O)c(N3CC(=O)NS3(=O)=O)c(F)c2n1 [Compound 135, 5-(8-fluoro-6-hydroxy-2-(isopentyloxy)quinolin-7-yl)-1,2,5-thiadiazolidin-3-one 1,1-dioxide]
[1]
  IC50: ≤ 1000 nM
[2]
  IC50: ≤ 1000 nM
[4]
  % CD25 expression in cells treated with subject compounds relative to negative control (DMSO): 431%
[3]
  activity at 10 µM: 255%

## O=C1CN(c2c(O)cc3ccc(OCC4CCS(=O)(=O)CC4)nc3c2F)S(=O)(=O)N1 [Compound 143]
[1]
  IC50: ≤ 1000 nM
[2]
  IC50: ≤ 1000 nM
[4]
  % CD25 expression in cells treated with subject compounds relative to negative control (DMSO): 323%
[3]
  activity at 10 µM: 161%

## CNc1ccc2cc(O)c(N3CC(=O)NS3(=O)=O)c(F)c2n1 [Compound 153]
[1]
  IC50: ≤ 1000 nM
[2]
  IC50: ≤ 1000 nM
[3]
  activity at 10 µM: 249%
